From patent US20050261319A1, “Novel 2-amino-4-quinazolinones and 2-amino-4-oxoquinazolones as LXR nuclear receptor binding compounds with partial agonistic properties” (priority 2002, published 2005)

What was measured:
human LXRalpha LBD = molecular target: T1, human LXRalpha LBD (Homo sapiens, UniProt Q13133, A196R); test: In vitro screening for LXR binding to coactivator Tif2 (LANCE TR-FRET); type: biochemical
T1 construct: from amino acids 155 of hLXRalpha to 447; made in house; host or cells: SF9 insect cells (baculovirus) for LXRalpha LBD; E. coli BL21 for Tif2 fragment
T1 sequence (Q13133 155-447 A196R): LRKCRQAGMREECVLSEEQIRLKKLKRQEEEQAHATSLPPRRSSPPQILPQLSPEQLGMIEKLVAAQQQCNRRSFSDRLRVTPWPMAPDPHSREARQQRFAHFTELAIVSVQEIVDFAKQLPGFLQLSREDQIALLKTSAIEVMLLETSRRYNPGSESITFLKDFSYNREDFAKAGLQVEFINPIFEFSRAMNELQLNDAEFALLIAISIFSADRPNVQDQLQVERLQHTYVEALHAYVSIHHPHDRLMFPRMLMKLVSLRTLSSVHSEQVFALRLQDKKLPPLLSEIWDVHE
T1 sequence (Q15596 548-878 partner limits assumed): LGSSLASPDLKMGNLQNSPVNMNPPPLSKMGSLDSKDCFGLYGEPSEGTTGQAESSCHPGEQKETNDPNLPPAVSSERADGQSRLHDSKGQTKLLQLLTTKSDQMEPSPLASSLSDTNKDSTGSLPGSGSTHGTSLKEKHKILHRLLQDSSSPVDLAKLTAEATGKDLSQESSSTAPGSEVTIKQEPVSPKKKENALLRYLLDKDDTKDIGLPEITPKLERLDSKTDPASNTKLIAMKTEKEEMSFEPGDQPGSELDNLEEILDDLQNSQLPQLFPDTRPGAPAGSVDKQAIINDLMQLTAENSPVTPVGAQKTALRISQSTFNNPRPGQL
Excerpt: For screening purposes a GST and 6× His fusion of the LBD (from amino acids 155 of hLXRalpha to 447) of human LXRalpha was constructed by first cloning a Gateway cassette (Invitrogen) in frame into the Sma I site of the pAGGHLT Polylinker (Pharmingen). Then a PCR fragment specifically amplified from human liver cDNA was cloned into the resulting pACGHLT-GW following the manufacturers instructions for Gateway cloning (Invitrogen) to yield pACGHLT-GW-hLXRalphaLBD.
100% sequence integrity of all recombinant products was verified by sequencing. Recombinant Baculovirus was constructed from pACGHLT-GW-hLXRalphaLBD using the Pharmingen Baculovirus Expression vector system according to instructions of the manufacturer. Monolayer cultures of SF9 cells were infected by the virus as recommended by Pharmingen or 200 ml cultures of 1×10^6 cells/ml grown in 2 liter Erlenmeyer flasks on an orbital shaker at 30 rpm were infected by 10 ml of same virus stock. In both cases cells were harvested 3 days after infection. All cell growth was performed in Gibco SF900 II with Glutamine (Invitrogen) medium without serum supplementation at 28° C. Since SF9 cells contain significant amounts of endogenous 30 GST, purification was performed via His and not via GST affinity chromatography.
To this end instructions of Pharmingen for purification of recombinant His tagged proteins from SF9 cells were followed with the following modifications: All detergents were omitted from the buffers and cells were lysed on ice by 5 subsequent sonication pulses using a sonicator needle at maximum power.
All eluates were dialyzed against 20 mM Tris/HCl pH 6.8, 300 mM KCl; 5 mM MgCl2;1 mM DTT; 0.2 mM PMSF; 10% Glycerol. A typical dialyzed eluate fraction contained the fusion protein at a purity of more than 80%. Total protein concentration was 0.1-0.3 mg/ml.
For E. coli expression of a NR coactivator, pDest17-hTif2BD expressing an NR interaction domain from amino acids 548-878 of human Tif2 (Acc. No: XM011633 Ref Seq) tagged by 6 N-terminal His residues was constructed. Therefore, a PCR fragment specifically amplified from human liver cDNA was subcloned into pDest 17 (Invitrogen) following the manufacturers instructions for Gateway cloning (Invitrogen). Primers used for Amplification were: […]
For E. coli expression plasmid DNA was transformed into chemically competent E. coli BL21 (Invitrogen, USA) and cells were grown to an OD600 of 0.4-0.7 before expression was induced by addition of 0.5 mM IPTG according instructions of the manufacturer (Invitrogen). After induction for 8 hours at 30° C. cells were harvested by centrifugation for 10 minutes at 5000×g. Fusion proteins were affinity purified using Ni—NTA Agarose (QIAGEN) according to the instructions of the manufacturer.
Recombinant Tif2 construct was dialyzed against 20 mM Tris/HCL pH 7.9; 60 mM KCl; 5 mM MgCl2; 1 mM DTT, 0.2 mM PMSF; 10% glycerol. A typical dialyzed eluate fraction contained the fusion protein at a purity of more than 80%. Total protein concentration was 0.1-0.3 mg/ml.
The TIF2 fragment was subsequently biotinylated by addition of 5-40 ul/ml Tif2 fraction of a Biotinamidocaproate N-Hydroxysuccinimide-ester (Sigma) solution (20 mg/ml in DMSO). Overhead rotating samples were incubated for 2 hours at room temperature. Unincorporated label was then separated using G25 Gel filtration chromatography (Pharmacia Biotech, Sweden). Protein containing fractions from the column were pooled and tested for activity in the assay as described below.
For screening of compound libraries as provided for by the methods shown below in the examples for substances which influence the LXR/Tif 2 interaction, the PerkinElmer LANCE technology is applied. This method relies on the binding dependent energy transfer from a donor to an acceptor fluorophore attached to the binding partners of interest. […]

[1] = tested on: FAS and SREBP-1c in HepG2 cells; test: mRNA content of FAS and SREBP-1c in HepG2 cells (TaqMan); type: cell-based
Protocol: THP-1 (3×10^5 cells per dish) cells were seeded in […] RPMI-1640 medium (ATTC, Cat. No. 30-2001) containing 10% FCS (GIBCO) and 100 nM TPA and cultivated at 37° C. in 5% CO2 for 24 or 48 hours. HepG2 (4.5×10^5 cells per dish) were seeded in 24 well dishes in 3 ml DMEM Medium containing 10% FCS (GIBCO) and cultivated at 37° C. in 5% CO2 for 48 hours as indicated in FIG. 8B or until they are approx. 60% confluent.
The medium was then removed and replaced with medium containing 10% charcoal/stripped FCS (Hyclone) for 12 h.
LXR compounds are dissolved in DMSO, with the final solvent concentration never exceeding 0.125%. All treatments are done in triplicates and experiments repeated twice. Total RNA is extracted using the Qiagen Rneasy Mini Kit and treated with DNase (DNA free kit, Ambion). RNA is reverse transcribed with Oligo (dT) primer and real-time reverse transcription PCR (TaqMan) is performed using the ABI Prism 7900HT Sequence Detection System and reagents supplied by Applied Biosystems. mRNA steady state levels are normalised to H3 histone (H3F3A) expression levels.
The sequences of forward primers, reverse primers and TaqMan probes are as follows

With C=CCn1c(N2C3CC(C)(C)CC2(C)C3)nc2ccc(I)cc2c1=O (stereo not drawn) [formula (9)] the EC50 (human LXRalpha LBD; FRET assay, read-out: EC50 at LXR (half-maximal effective concentration)) was 2000 nM, the “upregulation of FAS” value [1] was “does not significantly upregulate” and the “upregulation of SREBP-1c” value [1] was “much reduced”.

In the case of C=CCn1c(N2[C@@H]3CC(C)(C)C[C@@]2(C)C3)nc2cccc(F)c2c1=O [formula (12)], the “active as agonist / partial agonist of the LXR human nuclear receptor” value (shortened to “active as agonist / partial agonist”) (human LXRalpha LBD) is reported as “active as partial agonist”.

For CC(C)n1c(N2C3CC(C)(C)CC2(C)C3)nc2ccc(I)cc2c1=O (stereo not drawn) [formula (10)], the “active as agonist / partial agonist” value (human LXRalpha LBD) was “active as partial agonist”.

In the case of CCCn1c(N2[C@@H]3CC(C)(C)C[C@@]2(C)C3)nc2cccc(F)c2c1=O [formula (11)], the “active as agonist / partial agonist” value (human LXRalpha LBD) is reported as “active as partial agonist”.
